This test deals with T1, Human CGT (Homo sapiens, UniProt Q16880).
T1 construct: made in house; host or cells: CHO cells expressing UGT8; crude M-PER lysate
T1 sequence (Q16880 21-541): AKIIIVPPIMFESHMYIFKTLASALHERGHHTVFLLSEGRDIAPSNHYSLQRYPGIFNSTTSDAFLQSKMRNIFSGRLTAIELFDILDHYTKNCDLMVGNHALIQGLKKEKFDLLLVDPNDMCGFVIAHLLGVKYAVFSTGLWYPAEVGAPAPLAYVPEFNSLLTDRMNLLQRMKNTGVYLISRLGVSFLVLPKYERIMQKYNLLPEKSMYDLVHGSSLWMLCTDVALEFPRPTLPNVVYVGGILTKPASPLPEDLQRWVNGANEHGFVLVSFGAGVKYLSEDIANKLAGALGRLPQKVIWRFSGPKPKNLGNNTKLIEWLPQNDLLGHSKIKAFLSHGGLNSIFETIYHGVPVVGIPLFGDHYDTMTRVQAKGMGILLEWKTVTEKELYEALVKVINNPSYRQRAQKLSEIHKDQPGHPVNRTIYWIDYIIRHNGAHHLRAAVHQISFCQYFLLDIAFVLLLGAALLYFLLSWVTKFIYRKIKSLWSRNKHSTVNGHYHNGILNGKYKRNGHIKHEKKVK
Put plainly: CGT enzyme assay (cell-lysate assay). Type of test: biochemical. Particulars: lysate of CHO cells expressing human UGT8. On the procedure: Human CGT was obtained from a cell lysate from CHO cells expressing UGT8 (made by BioMarin) prepared in M-PER with proteinase inhibitors (Sigma). Compounds, serially diluted in DMSO and Tween 80, were added to 4 µg/well of CHO/CGT cell lysate to make 20 µL final reaction volume containing 0.5% DMSO and 0.01% Tween 80 in the reaction buffer consisting of 10 µM NDB-(2R-OH)-C6 ceramide (made by BioMarin), 17.5 µM UDP-Galactose (Sigma), 35 µM of dioleoylphosphatidylcholine (DOPC), 5 mM MgCl2, 5 mM MnCl2, 1% BSA, 15 mM KCl, 1 mM EGTA, 8 mM CHAPS, 10 mM HEPES–NaOH pH 7.2. The reaction was incubated at 37 °C for 1 h and stopped by adding 80 µL of methanol:acetonitrile (1:3) with 5 µM N-dodecanoyl-NBD-galactosylceramide (Matreya) internal standard (IS) for 30 min. 200 µL H2O:ACN (1:1) was added for 5 min and then centrifuged at 4000 rpm for 38 min at RT before quantifying NDB-(2R-OH)-C6-galactosylceramide (BioMarin) by LC–MS on a Rapid Fire 360 mass spectrometer (Agilent) coupled with a API4000 + MS in electrospray ionization (ESI) negative mode (Applied Biosystems). These assay conditions were used to screen the Bio-active lipid library (Cayman Cat# 10506).

In article PMC8280112, “Substrate reduction therapy for Krabbe disease and metachromatic leukodystrophy using a novel ceramide galactosyltransferase inhibitor” (Scientific Reports, 2021) one finds IC50 data, which are given here for one compound.

Broadly, the IC50 is the point on the concentration scale where inhibition reaches its midpoint. Low values mean inhibition by little substance, high ones a need for much substance. As to `O=C1N(c2ccc(Br)cc2)C(=O)C(O)(c2ccccc2)N1c1ccc(Br)cc1` (stereo not shown) [S221], the concentration for half-maximal inhibition (IC50) came to 23 µM.
